Results as given in the kinase profiling compilation of Christmann-Franck et al. (2016).
Values joined by “and” are separate entries in the source; they are usually repeats but may differ in a detail not shown here. Identical values can stand only once.

Columns and labels:
Experiment in all cases: radiometric filter-binding kinase assay, Kinase HotSpot
Settings in all cases: compound 0.5 µM; ATP 10 µM
STK24 (human) = STK24 (human) (UniProt Q9Y6E0)
FGFR1 (human) = FGFR1 (human) (UniProt P11362)
DYRK4 (human) = DYRK4 (human) (UniProt Q9NR20)
GRK6 (human) = GRK6 (human) (UniProt P43250)
NEK7 (human) = NEK7 (human) (UniProt Q8TDX7)
LTK (human) = LTK (human) (UniProt P29376)
PKN1 (human) = PKN1 (human) (UniProt Q16512)
STK11 (human) = STK11 (human) (UniProt Q15831)
PRKD3 (human) = PRKD3 (human) (UniProt O94806)
DSTYK (human) = DSTYK (human) (UniProt Q6XUX3)
DSTYK (human), sequence (Q6XUX3 whole entry, looked up): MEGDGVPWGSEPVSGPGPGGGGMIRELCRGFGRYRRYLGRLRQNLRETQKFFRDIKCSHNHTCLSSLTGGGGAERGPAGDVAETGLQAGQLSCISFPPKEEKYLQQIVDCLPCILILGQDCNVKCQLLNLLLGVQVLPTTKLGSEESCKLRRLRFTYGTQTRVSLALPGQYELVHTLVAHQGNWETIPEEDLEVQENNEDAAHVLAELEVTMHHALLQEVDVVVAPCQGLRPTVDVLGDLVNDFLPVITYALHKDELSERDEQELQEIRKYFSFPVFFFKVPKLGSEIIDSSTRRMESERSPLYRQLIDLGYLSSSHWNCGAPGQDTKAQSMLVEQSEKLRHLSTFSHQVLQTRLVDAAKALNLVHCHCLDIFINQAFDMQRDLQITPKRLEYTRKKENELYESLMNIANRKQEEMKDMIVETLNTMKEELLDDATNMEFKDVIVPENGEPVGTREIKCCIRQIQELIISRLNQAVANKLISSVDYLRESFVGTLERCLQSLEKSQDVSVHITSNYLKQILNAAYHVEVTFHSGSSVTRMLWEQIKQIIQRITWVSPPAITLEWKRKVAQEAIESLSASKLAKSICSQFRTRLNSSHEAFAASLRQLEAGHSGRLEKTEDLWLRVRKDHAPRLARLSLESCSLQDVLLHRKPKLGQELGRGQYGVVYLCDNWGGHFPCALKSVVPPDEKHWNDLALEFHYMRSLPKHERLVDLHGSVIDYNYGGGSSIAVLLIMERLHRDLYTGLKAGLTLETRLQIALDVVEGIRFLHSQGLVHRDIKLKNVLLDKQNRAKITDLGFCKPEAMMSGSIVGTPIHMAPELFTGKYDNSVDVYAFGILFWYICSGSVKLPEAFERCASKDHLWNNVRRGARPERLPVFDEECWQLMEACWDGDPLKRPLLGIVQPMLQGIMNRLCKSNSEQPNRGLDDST

MAP3K7 TAB1 (human) = MAP3K7 TAB1 (human) (UniProt O43318+Q15750)
BTK (human) = BTK (human) (UniProt Q06187)
BTK (human), sequence (Q06187 whole entry, looked up): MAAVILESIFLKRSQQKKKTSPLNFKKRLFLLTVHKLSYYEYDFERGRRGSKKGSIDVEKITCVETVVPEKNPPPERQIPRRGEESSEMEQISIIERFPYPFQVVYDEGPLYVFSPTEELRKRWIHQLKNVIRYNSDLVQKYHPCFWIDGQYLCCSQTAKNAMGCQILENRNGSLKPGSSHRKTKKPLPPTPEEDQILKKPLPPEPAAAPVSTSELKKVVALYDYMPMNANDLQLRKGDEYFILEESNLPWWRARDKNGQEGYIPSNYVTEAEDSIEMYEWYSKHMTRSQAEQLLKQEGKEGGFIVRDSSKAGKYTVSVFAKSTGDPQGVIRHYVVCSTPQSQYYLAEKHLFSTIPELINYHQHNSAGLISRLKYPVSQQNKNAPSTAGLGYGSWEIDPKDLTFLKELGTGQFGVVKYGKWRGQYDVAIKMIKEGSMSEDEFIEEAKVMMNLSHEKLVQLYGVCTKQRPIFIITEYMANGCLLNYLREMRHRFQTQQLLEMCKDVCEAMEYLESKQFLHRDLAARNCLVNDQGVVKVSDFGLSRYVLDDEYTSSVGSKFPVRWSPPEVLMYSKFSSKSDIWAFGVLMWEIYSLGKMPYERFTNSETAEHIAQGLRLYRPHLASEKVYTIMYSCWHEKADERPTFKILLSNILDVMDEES

EPHA1 (human) = EPHA1 (human) (UniProt P21709)
FLT3 (human) = FLT3 (human) (UniProt P36888)
IKBKB (human) = IKBKB (human) (UniProt O14920)
LYN (human) = LYN (human) (UniProt P07948)
ROCK2 (human) = ROCK2 (human) (UniProt O75116)
DAPK1 (human) = DAPK1 (human) (UniProt P53355)
CSNK2A1 (human) = CSNK2A1 (human) (UniProt P68400)
MYLK (human) = MYLK (human) (UniProt Q15746)
CDK9 CCNT1 (human) = CDK9 CCNT1 (human) (UniProt P50750+O60563)
PNCK (human) = PNCK (human) (UniProt Q6P2M8)
KIT (human) = KIT (human) (UniProt P10721)
CDK4 CCND3 (human) = CDK4 CCND3 (human) (UniProt P30281+P11802)
CDK4 CCND3 (human), sequence (P11802 whole entry, looked up): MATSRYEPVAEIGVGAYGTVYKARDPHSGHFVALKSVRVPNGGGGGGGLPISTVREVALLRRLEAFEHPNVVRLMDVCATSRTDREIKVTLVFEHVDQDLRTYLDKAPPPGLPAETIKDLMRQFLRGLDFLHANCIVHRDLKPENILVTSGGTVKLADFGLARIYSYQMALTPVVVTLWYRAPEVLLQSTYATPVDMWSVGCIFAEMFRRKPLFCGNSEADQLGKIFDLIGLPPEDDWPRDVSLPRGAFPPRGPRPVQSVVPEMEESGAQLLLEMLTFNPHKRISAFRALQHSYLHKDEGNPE
CDK4 CCND3 (human), sequence (P30281 whole entry, looked up): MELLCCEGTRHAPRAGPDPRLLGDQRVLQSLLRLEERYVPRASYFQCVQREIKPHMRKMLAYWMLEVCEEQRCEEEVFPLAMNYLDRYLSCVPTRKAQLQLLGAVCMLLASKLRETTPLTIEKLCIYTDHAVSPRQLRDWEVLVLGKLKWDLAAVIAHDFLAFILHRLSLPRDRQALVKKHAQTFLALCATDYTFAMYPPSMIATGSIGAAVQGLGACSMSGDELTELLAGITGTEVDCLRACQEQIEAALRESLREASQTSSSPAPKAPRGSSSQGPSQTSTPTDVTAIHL

CSNK2A2 (human) = CSNK2A2 (human) (UniProt P19784)
BMX (human) = BMX (human) (UniProt P51813)
MAPK9 (human) = MAPK9 (human) (UniProt P45984)
MAPK9 (human), sequence (P45984 whole entry, looked up): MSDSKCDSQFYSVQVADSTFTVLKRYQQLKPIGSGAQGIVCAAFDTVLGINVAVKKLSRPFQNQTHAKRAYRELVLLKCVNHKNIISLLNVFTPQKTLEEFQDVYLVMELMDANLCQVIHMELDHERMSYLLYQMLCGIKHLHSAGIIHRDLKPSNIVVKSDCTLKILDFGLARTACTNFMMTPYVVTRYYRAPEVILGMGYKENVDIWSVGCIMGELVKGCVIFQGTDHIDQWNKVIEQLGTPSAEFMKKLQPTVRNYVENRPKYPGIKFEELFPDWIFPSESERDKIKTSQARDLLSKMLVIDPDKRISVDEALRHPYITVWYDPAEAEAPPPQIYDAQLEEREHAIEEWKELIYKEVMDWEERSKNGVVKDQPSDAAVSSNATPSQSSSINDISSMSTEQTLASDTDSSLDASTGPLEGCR

MAP4K5 (human) = MAP4K5 (human) (UniProt Q9Y4K4)
AURKC (human) = AURKC (human) (UniProt Q9UQB9)
TYRO3 (human) = TYRO3 (human) (UniProt Q06418)
EPHA2 (human) = EPHA2 (human) (UniProt P29317)
RPS6KA4 KD2 (human) = RPS6KA4 KD2 (human) (UniProt O75676)
RPS6KA4 KD2 (human), sequence (O75676 whole entry, looked up): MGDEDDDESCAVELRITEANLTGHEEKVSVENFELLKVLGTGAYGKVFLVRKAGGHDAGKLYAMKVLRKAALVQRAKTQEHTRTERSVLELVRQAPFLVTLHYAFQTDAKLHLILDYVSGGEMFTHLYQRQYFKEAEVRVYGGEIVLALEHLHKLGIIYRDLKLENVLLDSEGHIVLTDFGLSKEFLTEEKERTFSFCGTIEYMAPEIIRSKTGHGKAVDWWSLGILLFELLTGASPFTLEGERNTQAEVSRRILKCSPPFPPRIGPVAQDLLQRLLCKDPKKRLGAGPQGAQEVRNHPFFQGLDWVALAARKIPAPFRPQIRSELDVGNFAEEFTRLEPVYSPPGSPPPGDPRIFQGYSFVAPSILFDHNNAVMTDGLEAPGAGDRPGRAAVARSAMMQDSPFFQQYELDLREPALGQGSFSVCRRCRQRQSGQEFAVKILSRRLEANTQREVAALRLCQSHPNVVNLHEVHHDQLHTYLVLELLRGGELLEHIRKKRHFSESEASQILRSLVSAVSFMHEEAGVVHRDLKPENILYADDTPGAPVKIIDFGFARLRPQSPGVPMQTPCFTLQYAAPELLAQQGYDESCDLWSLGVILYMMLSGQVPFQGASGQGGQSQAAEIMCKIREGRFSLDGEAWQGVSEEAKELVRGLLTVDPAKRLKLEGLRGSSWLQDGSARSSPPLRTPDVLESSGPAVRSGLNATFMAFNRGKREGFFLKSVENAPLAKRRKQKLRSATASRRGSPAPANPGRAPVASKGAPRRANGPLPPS

ABL1 (human) = ABL1 (human) (UniProt P00519)
MAP4K2 (human) = MAP4K2 (human) (UniProt Q12851)
CDK2 CCNE1 (human) = CDK2 CCNE1 (human) (UniProt P24941+P24864)
GRK7 (human) = GRK7 (human) (UniProt Q8WTQ7)
GRK7 (human), sequence (Q8WTQ7 whole entry, looked up): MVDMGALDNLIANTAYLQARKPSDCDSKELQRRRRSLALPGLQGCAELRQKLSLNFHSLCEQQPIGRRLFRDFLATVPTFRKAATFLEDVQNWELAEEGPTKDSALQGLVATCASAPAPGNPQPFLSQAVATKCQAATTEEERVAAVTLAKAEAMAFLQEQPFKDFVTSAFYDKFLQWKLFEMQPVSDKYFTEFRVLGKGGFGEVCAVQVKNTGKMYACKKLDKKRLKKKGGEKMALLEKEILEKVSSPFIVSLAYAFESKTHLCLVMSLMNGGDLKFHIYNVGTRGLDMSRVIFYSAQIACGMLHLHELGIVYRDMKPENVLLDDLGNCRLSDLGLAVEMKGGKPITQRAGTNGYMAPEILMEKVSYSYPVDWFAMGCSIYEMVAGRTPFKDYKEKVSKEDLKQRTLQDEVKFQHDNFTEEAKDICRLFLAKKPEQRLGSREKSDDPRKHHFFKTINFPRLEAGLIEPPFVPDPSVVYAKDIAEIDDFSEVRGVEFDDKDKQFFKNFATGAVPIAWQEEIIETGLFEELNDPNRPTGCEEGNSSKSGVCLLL

TGFBR2 (human) = TGFBR2 (human) (UniProt P37173)
TGFBR2 (human), sequence (P37173 whole entry, looked up): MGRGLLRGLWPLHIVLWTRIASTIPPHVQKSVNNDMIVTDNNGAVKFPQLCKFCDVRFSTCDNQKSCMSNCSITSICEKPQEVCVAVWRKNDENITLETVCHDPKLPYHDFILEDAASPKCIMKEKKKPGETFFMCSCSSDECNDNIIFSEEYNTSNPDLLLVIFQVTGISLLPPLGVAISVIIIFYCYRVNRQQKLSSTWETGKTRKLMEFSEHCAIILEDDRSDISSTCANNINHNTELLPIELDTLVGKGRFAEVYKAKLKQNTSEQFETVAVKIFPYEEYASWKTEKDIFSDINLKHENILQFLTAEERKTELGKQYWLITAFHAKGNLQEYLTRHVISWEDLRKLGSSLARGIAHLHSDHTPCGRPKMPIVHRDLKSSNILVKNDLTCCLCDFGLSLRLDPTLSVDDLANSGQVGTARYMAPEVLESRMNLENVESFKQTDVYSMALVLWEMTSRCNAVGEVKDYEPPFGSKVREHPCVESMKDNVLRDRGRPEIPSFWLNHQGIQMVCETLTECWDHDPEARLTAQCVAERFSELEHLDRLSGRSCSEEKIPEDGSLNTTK

TGFBR1 (human) = TGFBR1 (human) (UniProt P36897)
NEK6 (human) = NEK6 (human) (UniProt Q9HC98)
SIK2 (human) = SIK2 (human) (UniProt Q9H0K1)
IRAK1 (human) = IRAK1 (human) (UniProt P51617)
BLK (human) = BLK (human) (UniProt P51451)

STK24 (human), sequence (Q9Y6E0 whole entry, looked up): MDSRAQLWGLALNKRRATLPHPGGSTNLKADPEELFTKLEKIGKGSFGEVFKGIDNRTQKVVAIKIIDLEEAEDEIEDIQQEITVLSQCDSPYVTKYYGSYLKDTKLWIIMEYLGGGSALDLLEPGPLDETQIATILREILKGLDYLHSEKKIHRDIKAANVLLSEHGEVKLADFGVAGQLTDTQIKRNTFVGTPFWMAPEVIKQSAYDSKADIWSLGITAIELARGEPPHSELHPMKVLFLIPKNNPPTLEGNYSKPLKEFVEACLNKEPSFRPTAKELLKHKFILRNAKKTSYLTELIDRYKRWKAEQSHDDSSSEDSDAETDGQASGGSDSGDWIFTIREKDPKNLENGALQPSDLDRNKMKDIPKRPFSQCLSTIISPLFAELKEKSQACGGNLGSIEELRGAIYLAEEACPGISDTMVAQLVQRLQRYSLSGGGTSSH

**Q.** What does the source list for `COc1ccc(CNC(=O)Nc2ncc([N+](=O)[O-])s2)cc1`?
**A.** residual activity (STK24 (human)): 93.6%; residual activity (FGFR1 (human)): 98.9%; residual activity (DYRK4 (human)): 97.7%; residual activity (GRK6 (human)): 99.6%; residual activity (NEK7 (human)): 99.4%; residual activity (LTK (human)): 101%; residual activity (PKN1 (human)): 94.3%; residual activity (STK11 (human)): 100%; residual activity (PRKD3 (human)): 93.4%; residual activity (DSTYK (human)): 96.2%; residual activity (MAP3K7 TAB1 (human)): 99.3%; residual activity (BTK (human)): 102%; residual activity (EPHA1 (human)): 107%; residual activity (FLT3 (human)): 98.9%; residual activity (IKBKB (human)): 94.9%; residual activity (LYN (human)): 91.4% and 97.7%; residual activity (ROCK2 (human)): 99.8%; residual activity (DAPK1 (human)): 105%; residual activity (CSNK2A1 (human)): 94.2%; residual activity (MYLK (human)): 94.1%; residual activity (CDK9 CCNT1 (human)): 88.1%; residual activity (PNCK (human)): 99.3%; residual activity (KIT (human)): 103%; residual activity (CDK4 CCND3 (human)): 94.4%; residual activity (CSNK2A2 (human)): 92.9%; residual activity (BMX (human)): 90.8%; residual activity (MAPK9 (human)): 135%; residual activity (MAP4K5 (human)): 93.9%; residual activity (AURKC (human)): 98.4%; residual activity (TYRO3 (human)): 100%; residual activity (EPHA2 (human)): 100%; residual activity (RPS6KA4 KD2 (human)): 101%; residual activity (ABL1 (human)): 96.8%; residual activity (MAP4K2 (human)): 113%; residual activity (CDK2 CCNE1 (human)): 97.6%; residual activity (GRK7 (human)): 103%; residual activity (TGFBR2 (human)): 117%; residual activity (TGFBR1 (human)): 95.8%; residual activity (NEK6 (human)): 100%; residual activity (SIK2 (human)): 89.4%; residual activity (IRAK1 (human)): 108%

**Q.** Which results are given for `O=C1Cc2c([nH]c3ccc(Br)cc23)-c2ccccc2N1`?
**A.** residual activity (STK24 (human)): 84.8%; residual activity (FGFR1 (human)): 99.4%; residual activity (DYRK4 (human)): 97.2%; residual activity (GRK6 (human)): 105%; residual activity (NEK7 (human)): 94.3%; residual activity (LTK (human)): 91.8%; residual activity (PKN1 (human)): 101%; residual activity (STK11 (human)): 95.7%; residual activity (PRKD3 (human)): 95.5%; residual activity (DSTYK (human)): 98.6%; residual activity (MAP3K7 TAB1 (human)): 84.2%; residual activity (BTK (human)): 98%; residual activity (EPHA1 (human)): 100%; residual activity (FLT3 (human)): 47.7%; residual activity (IKBKB (human)): 101%; residual activity (LYN (human)): 67.2% and 75.4%; residual activity (ROCK2 (human)): 84.6%; residual activity (DAPK1 (human)): 101%; residual activity (CSNK2A1 (human)): 79.1%; residual activity (MYLK (human)): 96.3%; residual activity (CDK9 CCNT1 (human)): 31.3%; residual activity (PNCK (human)): 99.6%; residual activity (KIT (human)): 90.3%; residual activity (CDK4 CCND3 (human)): 89%; residual activity (CSNK2A2 (human)): 74.6%; residual activity (BMX (human)): 99.6%; residual activity (MAPK9 (human)): 93.8%; residual activity (MAP4K5 (human)): 30.1%; residual activity (AURKC (human)): 90.9%; residual activity (TYRO3 (human)): 97.7%; residual activity (EPHA2 (human)): 98.3%; residual activity (RPS6KA4 KD2 (human)): 108%; residual activity (ABL1 (human)): 82.6%; residual activity (MAP4K2 (human)): 20.1%; residual activity (CDK2 CCNE1 (human)): 51.9%; residual activity (GRK7 (human)): 100%; residual activity (TGFBR2 (human)): 74.2%; residual activity (TGFBR1 (human)): 97.7%; residual activity (NEK6 (human)): 100%; residual activity (SIK2 (human)): 63.5%; residual activity (IRAK1 (human)): 98.6%

**Q.** What does the source list for `CN([C@@H](Cc1ccc(OS(=O)(=O)c2cccc3cnccc23)cc1)C(=O)N1CCN(c2ccccc2)CC1)S(=O)(=O)c1cccc2cnccc12`?
**A.** residual activity (STK24 (human)): 102%; residual activity (FGFR1 (human)): 103%; residual activity (DYRK4 (human)): 97.8%; residual activity (GRK6 (human)): 101%; residual activity (BLK (human)): 102%; residual activity (NEK7 (human)): 93.3%; residual activity (LTK (human)): 102%; residual activity (PKN1 (human)): 105%; residual activity (STK11 (human)): 99%; residual activity (PRKD3 (human)): 99.2%; residual activity (DSTYK (human)): 97.4%; residual activity (MAP3K7 TAB1 (human)): 93.4%; residual activity (BTK (human)): 97.1%; residual activity (EPHA1 (human)): 102%; residual activity (FLT3 (human)): 103%; residual activity (IKBKB (human)): 96.7%; residual activity (LYN (human)): 101% and 92.1%; residual activity (ROCK2 (human)): 105%; residual activity (DAPK1 (human)): 117%; residual activity (CSNK2A1 (human)): 100%; residual activity (MYLK (human)): 98.2%; residual activity (CDK9 CCNT1 (human)): 100%; residual activity (PNCK (human)): 99.7%; residual activity (KIT (human)): 96.3%; residual activity (CDK4 CCND3 (human)): 97.8%; residual activity (CSNK2A2 (human)): 121%; residual activity (BMX (human)): 97.4%; residual activity (MAPK9 (human)): 85.6%; residual activity (MAP4K5 (human)): 96.3%; residual activity (AURKC (human)): 98.2%; residual activity (TYRO3 (human)): 101%; residual activity (EPHA2 (human)): 101%; residual activity (RPS6KA4 KD2 (human)): 98.7%; residual activity (ABL1 (human)): 100%; residual activity (MAP4K2 (human)): 89.5%; residual activity (CDK2 CCNE1 (human)): 94.9%; residual activity (GRK7 (human)): 105%; residual activity (TGFBR2 (human)): 101%; residual activity (NEK6 (human)): 101%; residual activity (SIK2 (human)): 108%; residual activity (IRAK1 (human)): 95.4%
